# Source: PubChem BioAssay AID1963835 (Molecular Pharmacology Branch, DTP, NCI, 2024)
# pIC50: −log10 of the molar value.
# Test system: 699152-130-R-J1-PDC complex spheroid viability
# Assay: Anticancer human tumor 699152-130-R-J1-PDC patient-derived pancreatic carcinoma cell line growth inhibition [POLQ]
# Conditions: for pIC50: curve of first compound; for viability, T/C: stronger effect = lower value
# Outline: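 PDC + HUVEC + MSC complex spheroids; POLQ inhibitors ± partner drugs; top conc. at/near clinical Cmax, else 10 microM (SN-38 1 microM), half-log dilutions; 37 degrees C, 5% CO2.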
# 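Also: spheroids exposed to agents for 7 days before viability reading.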
# 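For viability, T/C in this document: percent of DMSO vehicle control viability so 100% = vehicle and 0% = no viable signal.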
compound,measurement,setting,value
CC(=O)O[C@H]1C(=O)[C@@]2(C)[C@H]([C@H](OC(=O)c3ccccc3)[C@]3(O)C[C@H](OC(=O)[C@H](O)[C@@H](NC(=O)c4ccccc4)c4ccccc4)C(C)=C1C3(C)C)[C@]1(OC(C)=O)CO[C@@H]1C[C@@H]2O + Nc1ccc(C#CCN(C(=O)Cc2ncc(C(F)(F)F)cc2C(F)(F)F)c2ccc(F)cc2)nn1,pIC50,second compound 0.0316 µM,< 5.52
same,pIC50,second compound 0.1 µM,< 5.52
same,pIC50,second compound 0.316 µM,< 5.52
same,pIC50,second compound 1 µM,< 5.52
same,pIC50,second compound 3.16 µM,< 5.52
same,pIC50,second compound 10 µM,< 5.52
same,"viability, T/C","second compound 0.0316 µM, first compound 0.00949 µM",82%
same,"viability, T/C","second compound 0.0316 µM, first compound 0.03 µM",66.1%
same,"viability, T/C","second compound 0.0316 µM, first compound 0.0949 µM",62.1%
same,"viability, T/C","second compound 0.0316 µM, first compound 0.3 µM",67.1%
same,"viability, T/C","second compound 0.0316 µM, first compound 0.949 µM",72.8%
same,"viability, T/C","second compound 0.0316 µM, first compound 3 µM",75.6%
same,"viability, T/C","second compound 0.1 µM, first compound 0.00949 µM",79.8%
same,"viability, T/C","second compound 0.1 µM, first compound 0.03 µM",69%
same,"viability, T/C","second compound 0.1 µM, first compound 0.0949 µM",61.4%
same,"viability, T/C","second compound 0.1 µM, first compound 0.3 µM",63.2%
same,"viability, T/C","second compound 0.1 µM, first compound 0.949 µM",68.8%
same,"viability, T/C","second compound 0.1 µM, first compound 3 µM",70.5%
same,"viability, T/C","second compound 0.316 µM, first compound 0.00949 µM",85.3%
same,"viability, T/C","second compound 0.316 µM, first compound 0.03 µM",69.2%
same,"viability, T/C","second compound 0.316 µM, first compound 0.0949 µM",65.5%
same,"viability, T/C","second compound 0.316 µM, first compound 0.3 µM",68%
same,"viability, T/C","second compound 0.316 µM, first compound 0.949 µM",64.8%
same,"viability, T/C","second compound 0.316 µM, first compound 3 µM",72.8%
same,"viability, T/C","second compound 1 µM, first compound 0.00949 µM",83%
same,"viability, T/C","second compound 1 µM, first compound 0.03 µM",72.2%
same,"viability, T/C","second compound 1 µM, first compound 0.0949 µM",65.5%
same,"viability, T/C","second compound 1 µM, first compound 0.3 µM",65.4%
same,"viability, T/C","second compound 1 µM, first compound 0.949 µM",71.6%
same,"viability, T/C","second compound 1 µM, first compound 3 µM",67.7%
same,"viability, T/C","second compound 3.16 µM, first compound 0.00949 µM",80.9%
same,"viability, T/C","second compound 3.16 µM, first compound 0.03 µM",68%
same,"viability, T/C","second compound 3.16 µM, first compound 0.0949 µM",65.4%
same,"viability, T/C","second compound 3.16 µM, first compound 0.3 µM",69.9%
same,"viability, T/C","second compound 3.16 µM, first compound 0.949 µM",84.2%
same,"viability, T/C","second compound 3.16 µM, first compound 3 µM",76.9%
same,"viability, T/C","second compound 10 µM, first compound 0.00949 µM",97%
same,"viability, T/C","second compound 10 µM, first compound 0.03 µM",70.5%
same,"viability, T/C","second compound 10 µM, first compound 0.0949 µM",72.3%
same,"viability, T/C","second compound 10 µM, first compound 0.3 µM",71.9%
same,"viability, T/C","second compound 10 µM, first compound 0.949 µM",86.7%
same,"viability, T/C","second compound 10 µM, first compound 3 µM",78.5%
CCc1cc2c(N3CCc4c(cc(Cn5ccnc5)cc4-c4cn(C)nc4C(F)(F)F)C3=O)cc(C)nc2c(OC)n1 + Nc1ccc(C#CCN(C(=O)Cc2ncc(C(F)(F)F)cc2C(F)(F)F)c2ccc(F)cc2)nn1,pIC50,second compound 0.0316 µM,< 5.00
same,pIC50,second compound 0.1 µM,< 5.00
same,pIC50,second compound 0.316 µM,< 5.00
same,pIC50,second compound 1 µM,< 5.00
same,pIC50,second compound 3.16 µM,< 5.00
same,pIC50,second compound 10 µM,< 5.00
same,"viability, T/C","second compound 0.0316 µM, first compound 0.0316 µM",85.8%
same,"viability, T/C","second compound 0.0316 µM, first compound 0.1 µM",89.8%
same,"viability, T/C","second compound 0.0316 µM, first compound 0.316 µM",97.3%
same,"viability, T/C","second compound 0.0316 µM, first compound 1 µM",101%
same,"viability, T/C","second compound 0.0316 µM, first compound 3.16 µM",99.4%
same,"viability, T/C","second compound 0.0316 µM, first compound 10 µM",106%
same,"viability, T/C","second compound 0.1 µM, first compound 0.0316 µM",87.7%
same,"viability, T/C","second compound 0.1 µM, first compound 0.1 µM",88.8%
same,"viability, T/C","second compound 0.1 µM, first compound 0.316 µM",96.9%
same,"viability, T/C","second compound 0.1 µM, first compound 1 µM",93.4%
same,"viability, T/C","second compound 0.1 µM, first compound 3.16 µM",100%
same,"viability, T/C","second compound 0.1 µM, first compound 10 µM",107%
same,"viability, T/C","second compound 0.316 µM, first compound 0.0316 µM",89.5%
same,"viability, T/C","second compound 0.316 µM, first compound 0.1 µM",94.2%
same,"viability, T/C","second compound 0.316 µM, first compound 0.316 µM",101%
same,"viability, T/C","second compound 0.316 µM, first compound 1 µM",89.7%
same,"viability, T/C","second compound 0.316 µM, first compound 3.16 µM",97%
same,"viability, T/C","second compound 0.316 µM, first compound 10 µM",101%
same,"viability, T/C","second compound 1 µM, first compound 0.0316 µM",86.5%
same,"viability, T/C","second compound 1 µM, first compound 0.1 µM",93.6%
same,"viability, T/C","second compound 1 µM, first compound 0.316 µM",95.6%
same,"viability, T/C","second compound 1 µM, first compound 1 µM",95.5%
same,"viability, T/C","second compound 1 µM, first compound 3.16 µM",100%
same,"viability, T/C","second compound 1 µM, first compound 10 µM",104%
same,"viability, T/C","second compound 3.16 µM, first compound 0.0316 µM",105%
same,"viability, T/C","second compound 3.16 µM, first compound 0.1 µM",95.7%
same,"viability, T/C","second compound 3.16 µM, first compound 0.316 µM",102%
same,"viability, T/C","second compound 3.16 µM, first compound 1 µM",106%
same,"viability, T/C","second compound 3.16 µM, first compound 3.16 µM",107%
same,"viability, T/C","second compound 3.16 µM, first compound 10 µM",106%
same,"viability, T/C","second compound 10 µM, first compound 0.0316 µM",99.8%
same,"viability, T/C","second compound 10 µM, first compound 0.1 µM",118%
same,"viability, T/C","second compound 10 µM, first compound 0.316 µM",110%
same,"viability, T/C","second compound 10 µM, first compound 1 µM",107%
same,"viability, T/C","second compound 10 µM, first compound 3.16 µM",117%
same,"viability, T/C","second compound 10 µM, first compound 10 µM",115%
